Assay results from patent US20230233425A1, “USE OF VOLATILE COMPOSITIONS TO LIMIT OR ELIMINATE THE PERCEPTION OF MALODOR” (Firmenich SA, priority 2017, published 2023).
Several values for one entry are separate records, joined by “and”; a condition that tells them apart may be missing. Identical values can stand only once. Like-named read-outs stand apart in the source and are kept apart here. Marks after values point to notes of the source that are not given here.

How the values were obtained:
Olfr741 = Olfr741 (Mus musculus, UniProt L7N1Y5); test: Indole antagonist dose-response, cAMP HTRF in HEK293T, vs indole EC80; format: cell-based; conditions: Table 22, first listing
Method: (§1) Using a cell-based assay, mouse receptor Olfr738, Olfr739, Olfr740, Olfr741, 0fr742, Olfr743, Olfr744, Olfr746, Olfr748 and Olfr749 were tested in an HEK293T cell line wherein the endogenous RTP1 gene has been activated and the odorant receptor chaperone was expressed (described in WO2016201153A1). The receptor genes were tagged with a Flag-Rho tag combination. Receptor genes were co-transfected with the canonical olfactory human G-protein alpha subunit Golf gene. Co-expression of the human Golf activates the Gs transduction pathway that leads to an internal cAMP increase upon binding to the appropriate ligand (indole here). Odorant-induced activity was detected by measuring the cAMP increase in the cytosol using an HTRF based kit (CisBio, cAMP dynamic 2 kit, cat. 62AM4PEJ).

Olfr740 = Olfr740 (Mus musculus, UniProt E9PV79); test: as above; format: cell-based; conditions: vs indole EC80; for Emax: HEK-293T, Table 22, first listing, read-out: Olfr740 % Inhibition; for IC50: Table 22, first listing (r7-r45), read-out: Olfr740 IC50
Method: as §1

Olfr738 = Olfr738 (Mus musculus, UniProt L7N1X7); test: as above; format: cell-based; conditions: vs indole EC80; for IC50: Table 22, first listing (r7-r45), read-out: Olfr738 IC50; for Olfr738 % Inhibition: Table 22, first listing
Method: as §1

Olfr742 = Olfr742 (Mus musculus, UniProt A2RTP5); test: as above; format: cell-based; conditions: vs indole EC80; for Emax: HEK-293T, read-out: Olfr742 % Inhibition
Method: as §1

[1] = biological target: T1, OR51E1 olfactory receptor (Homo sapiens, UniProt Q8TCB6); test: Butyric acid olfactory receptor antagonist cell-based dose-response vs butyric acid EC80; conditions: butyric acid at EC80; Table 5
T1 construct: expressed in transfected cells
T1 sequence (Q8TCB6 1-318): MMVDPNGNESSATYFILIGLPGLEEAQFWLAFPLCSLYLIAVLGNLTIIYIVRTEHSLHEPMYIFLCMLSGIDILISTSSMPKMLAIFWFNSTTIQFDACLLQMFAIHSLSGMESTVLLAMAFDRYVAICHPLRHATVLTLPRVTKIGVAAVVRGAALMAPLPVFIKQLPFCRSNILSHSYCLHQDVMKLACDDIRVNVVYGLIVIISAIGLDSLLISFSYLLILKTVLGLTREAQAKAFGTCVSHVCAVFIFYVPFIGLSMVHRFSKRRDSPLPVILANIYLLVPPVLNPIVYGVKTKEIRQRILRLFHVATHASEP

Olfr749 = biological target: T2, Olfr749 (Mus musculus, UniProt E9Q438); test: Indole antagonist dose-response, cAMP HTRF in HEK293T, vs indole EC80; format: cell-based; conditions: Table 23
T2 construct: Flag; Rho tag; expressed in transfected cells
T2 sequence (E9Q438 1-313): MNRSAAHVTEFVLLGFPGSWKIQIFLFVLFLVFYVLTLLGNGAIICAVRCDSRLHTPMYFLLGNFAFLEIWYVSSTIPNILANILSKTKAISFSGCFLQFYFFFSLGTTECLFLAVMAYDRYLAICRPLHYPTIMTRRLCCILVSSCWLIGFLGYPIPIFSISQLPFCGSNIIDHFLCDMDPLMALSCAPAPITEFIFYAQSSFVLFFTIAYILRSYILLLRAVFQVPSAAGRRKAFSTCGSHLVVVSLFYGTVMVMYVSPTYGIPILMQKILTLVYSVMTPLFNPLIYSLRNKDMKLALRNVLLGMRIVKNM
Method: as §1, with “Functional dose-response experiments were performed to identify compounds capable of antagonizing indole-sensitive receptors previously identified (U.S. Pat. No. 9,914,760 B2). Using” for “Using”, “62AM4PEJ). The receptors were exposed to binary mixtures of increasing concentrations of the test compounds in the presence of a potent activation concentration of indole (EC80) for each receptor. […] All the compounds listed decreased the indole induced activity of at least one receptor.” for “62AM4PEJ).”

[2] = tested on: geonol earthy/moss odor perception; test: Human sensory performance of test compounds with and without geonol; format: in vivo
In short: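 Panelists first learned the earthy/moss quality from a geonol-only reference, then rated pleasantness, earthy/moss intensity and overall intensity of geonol alone, antagonist alone, and geonol mixed with isointense or low-intensity antagonist on a 0-10 linear scale. Samples were presented in glass jars in randomized order with two-minute intervals.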

Olfr744 = biological target: T3, Olfr744 (Mus musculus, UniProt Q7TRM0); test: Indole antagonist dose-response, cAMP HTRF in HEK293T, vs indole EC80; format: cell-based; conditions: Table 23
T3 construct: Flag; Rho tag; expressed in transfected cells
T3 sequence (Q7TRM0 1-323): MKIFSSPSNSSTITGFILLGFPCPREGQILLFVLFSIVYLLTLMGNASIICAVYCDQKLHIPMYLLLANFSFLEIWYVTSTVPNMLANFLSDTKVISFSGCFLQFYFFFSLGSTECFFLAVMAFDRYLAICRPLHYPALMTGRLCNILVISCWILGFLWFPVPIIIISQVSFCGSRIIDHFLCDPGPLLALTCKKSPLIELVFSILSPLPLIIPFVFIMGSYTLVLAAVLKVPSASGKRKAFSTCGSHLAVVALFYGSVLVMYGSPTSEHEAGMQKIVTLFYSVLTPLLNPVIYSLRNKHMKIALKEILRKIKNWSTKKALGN
Method: as §1, with “Functional dose-response experiments were performed to identify compounds capable of antagonizing indole-sensitive receptors previously identified (U.S. Pat. No. 9,914,760 B2). Using” for “Using”, “62AM4PEJ). The receptors were exposed to binary mixtures of increasing concentrations of the test compounds in the presence of a potent activation concentration of indole (EC80) for each receptor. […] All the compounds listed decreased the indole induced activity of at least one receptor.” for “62AM4PEJ).”

Olfr743 = Olfr743 (Mus musculus, UniProt L7N1Y2); test: as above; format: cell-based; conditions: Table 23
Method: as §1, with “Functional dose-response experiments were performed to identify compounds capable of antagonizing indole-sensitive receptors previously identified (U.S. Pat. No. 9,914,760 B2). Using” for “Using”, “62AM4PEJ). The receptors were exposed to binary mixtures of increasing concentrations of the test compounds in the presence of a potent activation concentration of indole (EC80) for each receptor. […] All the compounds listed decreased the indole induced activity of at least one receptor.” for “62AM4PEJ).”

[3] = tested on: 1-octen-3-ol mushroom/earthy/fungal odor perception; test: Human sensory performance of test compounds with and without 1-octen-3-ol; format: in vivo
[4] = tested on: geonol malodor (earthy/moss odor) perception; test: Sensory evaluation of geonol earthy/moss odor in iso-intense binary mixtures (glass jars); format: in vivo, human; conditions: iso-intense binary mixture
From the text: Sensory Evaluation: Five 16 oz glass jars containing either REF (geonol only), geonol only control, antagonist only, mixture of geonol and isointense antagonist, or mixture of geonol and low intensity antagonist were presented to the panelists (last four samples were randomized across panelists). The panelists were asked to familiarize themselves with the earthy/moss odor quality from the REF jar first, then rate the pleasantness, earthy/moss odor intensity and overall odor intensity of the next four samples on a 0-10 linear scale. The inter-stimulus interval between the samples was two minutes to avoid adaptation.

[5] = biological target: 1-octen-3-ol receptors OR2W1, Olfr93, Olfr120, Olfr398; test: Antagonists of 1-octen-3-ol receptors (Example 11); format: cell-based, mouse and human; parameters: Inhibition(%): concentration or dose not given beside the values; conditions: Table 19
Olfr739 = Olfr739 (Mus musculus, UniProt E9Q1P0); test: Indole antagonist dose-response, cAMP HTRF in HEK293T, vs indole EC80; format: cell-based
Method: as §1, with “Functional dose-response experiments were performed to identify compounds capable of antagonizing indole-sensitive receptors previously identified (U.S. Pat. No. 9,914,760 B2). Using” for “Using”, “62AM4PEJ). The receptors were exposed to binary mixtures of increasing concentrations of the test compounds in the presence of a potent activation concentration of indole (EC80) for each receptor. […] All the compounds listed decreased the indole induced activity of at least one receptor.” for “62AM4PEJ).”

[6] = Table 22, second listing of the same compounds

Chain of Olfr742 (A2RTP5 entry or part of it): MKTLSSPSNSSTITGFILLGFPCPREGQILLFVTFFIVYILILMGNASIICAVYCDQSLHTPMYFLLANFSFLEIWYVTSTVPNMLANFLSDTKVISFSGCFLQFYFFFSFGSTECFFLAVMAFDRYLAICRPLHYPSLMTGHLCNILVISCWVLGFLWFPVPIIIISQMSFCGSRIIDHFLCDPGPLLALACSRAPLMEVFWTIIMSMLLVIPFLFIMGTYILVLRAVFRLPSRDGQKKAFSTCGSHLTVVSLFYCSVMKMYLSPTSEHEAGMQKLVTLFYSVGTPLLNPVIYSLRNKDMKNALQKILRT
Chain of Olfr740 (E9PV79 entry or part of it): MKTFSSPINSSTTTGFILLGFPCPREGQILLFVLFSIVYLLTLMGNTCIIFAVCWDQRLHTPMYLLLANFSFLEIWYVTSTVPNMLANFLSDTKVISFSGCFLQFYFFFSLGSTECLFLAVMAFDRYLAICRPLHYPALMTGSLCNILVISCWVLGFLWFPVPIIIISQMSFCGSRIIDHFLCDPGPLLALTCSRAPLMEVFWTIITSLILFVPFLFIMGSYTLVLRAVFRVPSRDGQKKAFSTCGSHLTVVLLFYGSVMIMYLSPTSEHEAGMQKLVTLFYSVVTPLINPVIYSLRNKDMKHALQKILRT
Chain of Olfr738 (L7N1X7 entry or part of it): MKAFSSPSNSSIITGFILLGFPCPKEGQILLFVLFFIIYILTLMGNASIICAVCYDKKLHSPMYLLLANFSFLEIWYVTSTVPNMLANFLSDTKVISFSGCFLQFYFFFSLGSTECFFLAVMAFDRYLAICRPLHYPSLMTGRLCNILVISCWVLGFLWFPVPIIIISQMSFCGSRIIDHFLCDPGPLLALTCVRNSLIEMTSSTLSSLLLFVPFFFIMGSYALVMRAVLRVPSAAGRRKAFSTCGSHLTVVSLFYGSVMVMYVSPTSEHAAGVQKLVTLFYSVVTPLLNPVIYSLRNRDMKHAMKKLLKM
Chain of Olfr743 (L7N1Y2 entry or part of it): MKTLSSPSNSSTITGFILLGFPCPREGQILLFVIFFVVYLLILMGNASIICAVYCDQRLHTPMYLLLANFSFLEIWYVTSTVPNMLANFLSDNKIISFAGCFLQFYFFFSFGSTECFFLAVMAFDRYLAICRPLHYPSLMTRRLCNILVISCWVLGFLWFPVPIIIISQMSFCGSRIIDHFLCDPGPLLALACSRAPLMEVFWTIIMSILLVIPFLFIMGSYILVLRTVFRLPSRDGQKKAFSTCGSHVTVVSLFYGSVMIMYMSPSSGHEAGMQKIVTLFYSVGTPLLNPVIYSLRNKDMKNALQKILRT
Chain of Olfr739 (E9Q1P0 entry or part of it): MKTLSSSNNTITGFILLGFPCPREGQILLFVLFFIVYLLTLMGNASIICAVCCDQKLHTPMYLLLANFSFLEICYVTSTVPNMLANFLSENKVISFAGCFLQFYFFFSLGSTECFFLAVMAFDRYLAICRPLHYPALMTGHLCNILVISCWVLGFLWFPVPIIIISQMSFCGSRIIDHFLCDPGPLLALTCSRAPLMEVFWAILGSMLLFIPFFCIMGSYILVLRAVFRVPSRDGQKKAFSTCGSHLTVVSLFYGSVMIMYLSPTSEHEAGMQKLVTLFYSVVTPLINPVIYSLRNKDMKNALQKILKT
Chain of Olfr741 (L7N1Y5 entry or part of it): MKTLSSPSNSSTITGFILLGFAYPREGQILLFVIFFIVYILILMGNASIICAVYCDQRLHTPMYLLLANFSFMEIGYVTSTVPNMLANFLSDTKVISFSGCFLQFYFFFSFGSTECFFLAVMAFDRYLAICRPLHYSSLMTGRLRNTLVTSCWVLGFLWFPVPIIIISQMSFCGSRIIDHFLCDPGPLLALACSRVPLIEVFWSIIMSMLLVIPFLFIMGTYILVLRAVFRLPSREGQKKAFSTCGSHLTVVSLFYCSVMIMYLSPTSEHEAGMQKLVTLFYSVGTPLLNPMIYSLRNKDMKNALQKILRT

C/C=C/C(=O)C1C(C)=CCCC1(C)C (racemic) [(+−)-(2E)-1-(2,6,6-trimethyl-2-cyclohexen-1-yl)-2-buten-1-one]
IC50 (Olfr741): 110 µM | Olfr741 % Inhibition (Olfr741): 75.65% | Emax (Olfr740): 115% | IC50 (Olfr740): 137 µM | IC50 (Olfr738): 99.8 µM | Olfr738 % Inhibition (Olfr738): 12.19% | Emax (Olfr742; Table 22, first listing): 113% | Emax (Olfr742; [6]): 47.9% | IC50 (Olfr742; Table 22, first listing (r7-r45), read-out: Olfr742 IC50): 95.4 µM | IC50 [1]: 50.5 µM | IC50 (Olfr749): 156 µM | Olfr749 % Inhibition (Olfr749): 47.86%

4-(2,6,6-trimethylcyclohexen-1-yl)but-3-en-2-one; 4-(2,6,6-trimethylcyclohex-2-en-1-yl)but-3-en-2-one
% Earthy/Moss Odor Remaining ([2]; Low Dilution Test Compound + Geonol (0.1%)): 73.40% | % Earthy/Moss Odor Remaining ([2]; Medium Dilution Test Compound + Geonol (0.1%)): 70.30% | % Earthy/Moss Odor ([2]; Test Compound Only): 27.10% | IC50 (Olfr744): 125 µM and 159 µM | Olfr744 % Inhibition (Olfr744): 78.23% and 77.99% | IC50 (Olfr743): 275 µM and 159 µM | Olfr743 % Inhibition (Olfr743): 114.78% and 112.64% | IC50 (Olfr749): 75.8 µM and 76 µM | % Mushroom/Earthy/Fungal Odor Remaining ([3]; Low Dilution Test Compound + 1-octen-3-ol (0.15%)): 94.80% | % Mushroom/Earthy/Fungal Odor Remaining ([3]; Medium Dilution Test Compound + 1-octen-3-ol (0.15%)): 73.90% | % Mushroom/Earthy/Fungal Odor ([3]; Test Compound Only): 20.30% | % Remaining in human sensory tests [4]: 59* % | IC50 [5]: 146 µM | Inhibition(%) [5]: 79%

CC(C)(C)C1CCC(=O)CC1 [4-t-butylcyclohexanone]
Emax (Olfr740): 213% | IC50 (Olfr740): 10.6 µM | IC50 (Olfr738): 43.1 µM | Olfr738 % Inhibition (Olfr738): 52.44% | IC50 (Olfr744): 175 µM | Olfr744 % Inhibition (Olfr744): 148.19% | Olfr739 % Inhibition (Olfr739; Table 22, first listing): 60.32% | IC50 (Olfr739; Table 22, first listing (r7-r45)): 69.9 µM | Olfr739 % Inhibition (Olfr739; [6]): 148.19%
